In patent publication US20260069588A1, “VEPDEGESTRANT FOR USE IN TREATING CANCER” (Arvinas Operation, Inc., priority 2022, published 2026):
“And” between values parts separate entries of the source, which are not always exact repeats. Equal values may be shown once. Read-outs that look alike come from different tables or passages of the source. Marks after values point to notes of the source that are not given here.

Columns and labels:
GSPT1 = GSPT1 (Homo sapiens, UniProt P15170); assay: Cereblon neomorphic substrate degradation, GSPT1; assay type: cell-based; conditions: in vitro
GSPT1, sequence (Q96SW2 whole entry partner, species assumed): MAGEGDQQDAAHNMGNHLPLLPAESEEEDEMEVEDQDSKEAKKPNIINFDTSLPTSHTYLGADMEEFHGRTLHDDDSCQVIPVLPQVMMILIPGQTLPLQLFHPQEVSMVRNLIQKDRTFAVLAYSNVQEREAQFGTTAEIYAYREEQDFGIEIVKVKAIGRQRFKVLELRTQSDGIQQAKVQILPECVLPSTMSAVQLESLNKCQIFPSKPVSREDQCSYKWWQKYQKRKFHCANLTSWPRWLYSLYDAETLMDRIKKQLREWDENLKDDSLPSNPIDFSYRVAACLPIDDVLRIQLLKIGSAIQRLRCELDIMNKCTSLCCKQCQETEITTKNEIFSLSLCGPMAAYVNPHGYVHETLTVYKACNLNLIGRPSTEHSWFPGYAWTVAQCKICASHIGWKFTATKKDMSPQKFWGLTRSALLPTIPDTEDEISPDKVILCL
GSPT1, sequence (Q16531 whole entry partner, species assumed): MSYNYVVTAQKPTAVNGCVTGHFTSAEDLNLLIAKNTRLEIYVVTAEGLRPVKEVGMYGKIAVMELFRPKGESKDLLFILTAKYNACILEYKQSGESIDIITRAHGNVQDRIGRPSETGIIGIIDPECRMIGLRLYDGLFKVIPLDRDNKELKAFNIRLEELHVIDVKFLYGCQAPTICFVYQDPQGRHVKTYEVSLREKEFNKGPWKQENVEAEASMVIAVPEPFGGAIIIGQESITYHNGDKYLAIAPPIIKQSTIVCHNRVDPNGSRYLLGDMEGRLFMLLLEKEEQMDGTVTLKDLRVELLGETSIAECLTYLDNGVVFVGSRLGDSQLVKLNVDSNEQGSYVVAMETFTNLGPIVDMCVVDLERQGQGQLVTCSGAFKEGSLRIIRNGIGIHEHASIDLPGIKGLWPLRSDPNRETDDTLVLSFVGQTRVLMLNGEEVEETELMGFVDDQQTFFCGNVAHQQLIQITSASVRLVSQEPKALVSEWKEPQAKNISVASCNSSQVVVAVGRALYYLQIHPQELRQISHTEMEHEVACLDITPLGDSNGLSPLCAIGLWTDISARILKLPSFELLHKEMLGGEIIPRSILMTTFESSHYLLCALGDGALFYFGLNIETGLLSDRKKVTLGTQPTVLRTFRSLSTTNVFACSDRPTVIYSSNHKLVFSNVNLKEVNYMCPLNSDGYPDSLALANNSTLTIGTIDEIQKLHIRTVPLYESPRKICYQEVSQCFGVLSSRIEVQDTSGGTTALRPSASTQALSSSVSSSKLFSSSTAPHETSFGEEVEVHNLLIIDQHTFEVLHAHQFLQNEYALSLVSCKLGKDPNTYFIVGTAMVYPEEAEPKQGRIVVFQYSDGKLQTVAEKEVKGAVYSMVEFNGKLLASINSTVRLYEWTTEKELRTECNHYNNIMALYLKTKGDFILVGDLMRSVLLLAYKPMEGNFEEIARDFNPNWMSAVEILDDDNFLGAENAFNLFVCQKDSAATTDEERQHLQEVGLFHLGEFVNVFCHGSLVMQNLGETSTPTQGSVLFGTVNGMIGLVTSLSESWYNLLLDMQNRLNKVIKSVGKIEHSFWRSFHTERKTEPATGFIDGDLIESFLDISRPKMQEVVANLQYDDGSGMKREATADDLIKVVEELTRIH
GSPT1, sequence (P15170 whole entry, species assumed): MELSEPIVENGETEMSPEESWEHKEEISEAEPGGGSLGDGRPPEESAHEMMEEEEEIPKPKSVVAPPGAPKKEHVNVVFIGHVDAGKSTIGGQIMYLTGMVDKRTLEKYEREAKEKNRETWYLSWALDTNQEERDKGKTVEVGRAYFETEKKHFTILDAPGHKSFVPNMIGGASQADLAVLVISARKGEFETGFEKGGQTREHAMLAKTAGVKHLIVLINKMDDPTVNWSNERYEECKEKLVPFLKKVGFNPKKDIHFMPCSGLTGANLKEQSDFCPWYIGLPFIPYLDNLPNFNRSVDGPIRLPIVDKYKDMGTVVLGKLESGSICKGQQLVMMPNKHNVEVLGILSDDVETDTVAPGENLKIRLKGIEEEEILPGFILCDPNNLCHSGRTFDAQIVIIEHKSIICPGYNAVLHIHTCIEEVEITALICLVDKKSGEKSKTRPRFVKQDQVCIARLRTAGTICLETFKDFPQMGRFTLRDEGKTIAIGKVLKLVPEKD
From the text: These drugs bind to cereblon and promote the degradation of novel (neomorphic) substrates.

[1] = 28-day GLP oral toxicity study in rats; conditions: both sexes, in vivo; rat, 28 days oral
Procedure: There were no mortalities and no Compound A-related clinical observations or changes in BWs or food consumption, and no FOB observations or ophthalmology findings. Minor clinical pathology changes at the 100 mg/kg/day dose level (minimally higher lymphocyte count in males, minimally lower calcium concentration in both sexes, minimally lower albumin concentration in males, and mildly lower cholesterol concentration in females) were potentially Compound A-related but were reversible and were not considered adverse.
Compound A-related microscopic findings included increased ovarian cysts in females administered ≥3 mg/kg/day and atrophy of the uterus and of the cervical and vaginal mucosal epithelium in females administered ≥10 mg/kg/day. […] Similar findings had been noted in a few animals in the 7-day study.

[2] = Clinical Pharmacology Study Fed/Fasted cohort: food effect on single-dose PK; assay type: in vivo, human; conditions: 200 mg single dose
From the text: Study Design: The Clinical Pharmacology Study consists of 3 independent cohorts: 1) an open-label, randomized, 2-period, crossover Fed/Fasted cohort to determine food effects; 2) an open-label, 2-period, fixed sequence PPI cohort to evaluate interactions with esomeprazole; and 3) an open-label, randomized, 2 period, crossover rBA cohort to evaluate 2 tablet formulations.
Compound A should be taken with food.

[3] = human, in vivo
Procedure: (§1) Study Design: In the FIH Study: Part A is a Phase I monotherapy dose escalation, and Part B is a Phase 2 monotherapy expansion at 2 RP2D doses (200 mg QD, 500 mg QD).

[4] = 7-day oral dose range finding toxicity study in rats; assay type: in vivo; conditions: rat, up to 300 mg/kg/day, 7 days
From the text: Noteworthy findings were changes in the female reproductive organs, including in the ovaries (minimal to moderate increased size of tertiary follicles, retained corpora lutea, and minimal to moderate interstitial cell hypertrophy), uterus (atrophy) and vagina (mucosa atrophy).

[5] = Single-dose oral TK and tolerability study in beagle dogs; assay type: in vivo; conditions: dog
Procedure: A lead-in single-dose TK and tolerability study conducted prior to the telemetry study indicated approximately dose-proportional increase in exposure between 200 and 400 mg/kg in the dog.

[6] = FIH Study Part B dose expansion (VERITAC): adverse events
Procedure: as §1
TEAEs and TRAEs from the clinical study database were coded to system organ class and preferred term using MedDRA version 22.0 and SAEs from the centralized safety database were coded using MedDRA version 25.0. The severity of adverse events was graded according to the NCI CTCAE version 5.0.

progesterone receptor = progesterone receptor (Homo sapiens, UniProt P06401); assay: Secondary pharmacodynamics binding, progesterone receptor; conditions: in vitro
progesterone receptor, sequence (P06401 whole entry, species assumed): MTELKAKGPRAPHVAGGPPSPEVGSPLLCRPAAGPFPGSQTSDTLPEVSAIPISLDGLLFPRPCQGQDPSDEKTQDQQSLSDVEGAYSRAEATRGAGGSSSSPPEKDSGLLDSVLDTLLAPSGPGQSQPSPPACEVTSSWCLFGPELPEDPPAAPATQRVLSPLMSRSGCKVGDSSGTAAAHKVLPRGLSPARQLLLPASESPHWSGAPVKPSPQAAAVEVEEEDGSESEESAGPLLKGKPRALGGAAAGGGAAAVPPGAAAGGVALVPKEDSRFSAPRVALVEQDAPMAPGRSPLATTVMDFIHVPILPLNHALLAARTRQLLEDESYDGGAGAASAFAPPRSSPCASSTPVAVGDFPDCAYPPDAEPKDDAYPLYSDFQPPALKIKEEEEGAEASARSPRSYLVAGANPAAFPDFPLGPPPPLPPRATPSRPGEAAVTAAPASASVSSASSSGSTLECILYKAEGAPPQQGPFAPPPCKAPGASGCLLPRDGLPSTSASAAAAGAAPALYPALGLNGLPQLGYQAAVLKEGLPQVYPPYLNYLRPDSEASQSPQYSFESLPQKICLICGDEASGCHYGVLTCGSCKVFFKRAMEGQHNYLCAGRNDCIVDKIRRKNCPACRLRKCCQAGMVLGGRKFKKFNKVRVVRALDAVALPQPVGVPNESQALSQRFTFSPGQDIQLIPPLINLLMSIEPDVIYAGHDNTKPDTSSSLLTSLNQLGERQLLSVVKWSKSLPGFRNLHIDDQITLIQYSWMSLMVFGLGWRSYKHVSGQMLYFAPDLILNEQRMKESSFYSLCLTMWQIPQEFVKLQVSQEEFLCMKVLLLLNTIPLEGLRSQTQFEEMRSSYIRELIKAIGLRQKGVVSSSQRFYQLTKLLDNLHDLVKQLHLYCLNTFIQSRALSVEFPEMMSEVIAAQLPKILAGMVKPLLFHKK

[7] = Plasma protein binding, dog; assay type: in vitro ADME; conditions: read-out: free fraction
[8] = Plasma protein binding, mouse; assay type: in vitro ADME; conditions: read-out: free fraction
Caco-2 cells = assay: Caco-2 bidirectional permeability; assay type: in vitro ADME; conditions: 11.25 μM
[9] = Caco-2 bidirectional permeability; assay type: in vitro ADME; conditions: human, Caco-2, 1.125 pM
[10] = 200 mg QD n=35, Nov. 1, 2022, grade 1/2

Q: Which results are given for `O=C1CC[C@H](N2Cc3cc(N4CCN(CC5CCN(c6ccc([C@@H]7c8ccc(O)cc8CC[C@@H]7c7ccccc7)cc6)CC5)CC4)ccc3C2=O)C(=O)N1` [Compound A, (S)-3-(5-(4-((1-(4-((1R,2S)-6-hydroxy-2-phenyl-1,2,3,4-tetrahydronaphthalen-1-yl)phenyl)piperidin-4-yl)methyl)piperazin-1-yl)-1-oxoisoindolin-2-yl)piperidine-2,6-dione]?
A: degradation of GSPT1 (GSPT1): did not degrade; NOAEL at 28 days [1]: 100 mg/kg/day; increase of AUCinf by high-fat meal [2]: 125%; increase of AUCinf by high-fat meal vs fasted [2]: 2.2 fold and 2 fold; increase of Cmax by high-fat meal [2]: 184%; increase of Cmax by high-fat meal vs fasted [2]: 2.8 fold and 3 fold; CL/F ([3]; 30 mg): 7.4 L/h; Rac (AUCtau) ([3]; 30 mg): 2.6; CL/F ([3]; 60 mg): 8.2 L/h; Rac (AUCtau) ([3]; 60 mg): 2.6; Tmax ([3]; 60 mg): 4.2 h; CL/F ([3]; 100 mg): 11.2 L/h; Rac (AUCtau) ([3]; 100 mg): 2.1; CL/F ([3]; 120 mg): 8.8 L/h; Cmax ([3]; 120 mg): 799 ng/mL; Rac (AUCtau) ([3]; 120 mg): 2.2; CL/F ([3]; 180 mg): 9.4 L/h; Cmax ([3]; 180 mg): 1062 ng/mL; Rac (AUCtau) ([3]; 180 mg): 2.3; Tmax ([3]; 180 mg): 5.0 h; AUCtau ([3]; 200 mg): 15459 ng·h/mL; CL/F ([3]; 200 mg): 12.9 L/h; Cmax ([3]; 200 mg): 866 ng/mL; Rac (AUCtau) ([3]; 200 mg): 1.9; Tmax ([3]; 200 mg): 5.0 h; CL/F ([3]; 250 mg): 12.2 L/h; CL/F ([3]; 360 mg): 13.9 L/h; Rac (AUCtau) ([3]; 360 mg): 2.2; CL/F ([3]; 500 mg): 14.5 L/h; Cmax ([3]; 500 mg): 1883 ng/mL; Rac (AUCtau) ([3]; 500 mg): 2.2; AUCtau ([3]; 700 mg): 26572 ^e ng·h/mL; Cmax ([3]; 700 mg): 1530 ^e ng/mL; Rac (AUCtau) ([3]; 700 mg): 1, 4 ^g; Tmax ([3]; 700 mg): 6.0 g·h; tolerability [4]: well tolerated; Cmax ([5]; both sexes, beagle, in vivo, 400 mg/kg single oral, sexes combined): 25000 ng/mL; AUC ([5]; both sexes, beagle, in vivo, 400 mg/kg single oral, sexes combined, read-out: mean AUC24): 349 µg·h/mL; tolerability ([5]; 200 or 400 mg/kg single oral, fecal changes, emesis at 400): tolerated; TRAE Arthralgia [6, 10]: 11%; TRAE Fatigue [6, 10]: 40%; TRAE Nausea [6, 10]: 14%; TRAE hot flush [6, 10]: 17%; TRAE increased aspartate aminotransferase [6, 10]: 11%; Grade 5 TRAEs ([6]; 6 Jun 2023): no Grade 5 TRAEs; Grade 1 TEAEs ([6]; 6 Jun 2023, N=71): 22.5%; Grade 1 TRAEs ([6]; 6 Jun 2023, N=71): 29.6%; Grade 2 TEAEs ([6]; 6 Jun 2023, N=71): 33.8%; Grade 2 TRAEs ([6]; 6 Jun 2023, N=71): 38.0%; Grade 3 TEAEs ([6]; 6 Jun 2023, N=71): 28.2%; Grade 3 TRAE electrocardiogram QT prolonged ([6]; 6 Jun 2023, N=71): 1.4%; Grade 4 TEAEs ([6]; 6 Jun 2023, N=71): 2.8%; Grade 5 TEAE ([6]; 6 Jun 2023, N=71): 1.4%; TEAE Arthralgia ([6]; 6 Jun 2023, N=71): 21.1%; TEAE Aspartate aminotransferase increased ([6]; 6 Jun 2023, N=71): 12.7%; TEAE Back pain ([6]; 6 Jun 2023, N=71): 11.3%; TEAE Constipation ([6]; 6 Jun 2023, N=71): 19.7%; TEAE Decreased appetite ([6]; 6 Jun 2023, N=71): 15.5%; TEAE Headache ([6]; 6 Jun 2023, N=71): 11.3%; TEAE Nausea ([6]; 6 Jun 2023, N=71): 26.8%; TEAE anemia ([6]; 6 Jun 2023, N=71): 14.1%; TEAE hot flush ([6]; 6 Jun 2023, N=71): 14.1%; TRAE Arthralgia ([6]; 6 Jun 2023, N=71): 14.1%; TRAE Fatigue ([6]; 6 Jun 2023, N=71): 36.6%; TRAE Nausea ([6]; 6 Jun 2023, N=71): 21.1%; TRAE hot flush ([6]; 6 Jun 2023, N=71): 12.7%; patients with TRAEs of Grade ≥3 ([6]; 6 Jun 2023, N=71): 7.0%; patients with at least 1 TEAE ([6]; 6 Jun 2023, N=71): 88.7%; patients with at least 1 TRAE ([6]; 6 Jun 2023, N=71): 76.1%; SAEs ([6]; 6 Jun 2023, N=71, 10): 14.1%; deaths ([6]; 14 of 71 participants): 19.7%; SAE Seizure, Grade ([6]; Patient 1, onset day 263, Not related): 3; SAE Intestinal obstruction, Grade ([6]; Patient 2, onset day 85, Not related): 3; SAE Muscular weakness, Grade ([6]; Patient 3, onset day 165, Not related): 3; SAE Back pain, Grade ([6]; Patient 3, onset day 196): 2; SAE Hepatic hemorrhage, Grade ([6]; Patient 4, onset day 55, Not related): 4; SAE Hypercalcemia, Grade ([6]; Patient 5, onset day 53, Not related): 4; SAE Anemia, Grade ([6]; Patient 6, Not related): 3; SAE Cholangitis, Grade ([6]; Patient 6, Not related): 3; SAE Thrombocytopenia, Grade ([6]; Patient 6, Possibly related, SUSAR): 3; SAE Hyperbilirubinemia, Grade ([6]; Patient 6, onset day 15, Possibly related, SUSAR): 4; SAE Acute respiratory failure, Grade ([6]; Patient 6, onset day 19, Unlikely related): 5; SAE Upper gastrointestinal hemorrhage, Grade ([6]; Patient 7, onset day 36, Not related): 3; SAE Spinal cord compression, Grade ([6]; Patient 8, onset day 22, Not related): 3; SAE Pyrexia, Grade ([6]; Patient 9, onset day 27, Not related): 3; Grade 5 TRAEs ([6]; cut-off 6 Jun 2022): no Grade 5 TRAEs; patients reporting SAEs ([6]; cut-off 6 Jun 2022): 9 of 71 patients; total SAEs ([6]; cut-off 6 Jun 2022): 14 SAEs; Grade 1 TEAEs ([6]; cut-off 6 Jun 2022, N=71): 29.6%; Grade 1 TRAEs ([6]; cut-off 6 Jun 2022, N=71): 33.8%; Grade 2 TEAEs ([6]; cut-off 6 Jun 2022, N=71): 35.2%; Grade 2 TRAEs ([6]; cut-off 6 Jun 2022, N=71): 31.0%; Grade 3 TEAE of anemia ([6]; cut-off 6 Jun 2022, N=71): 2 patients; Grade 3 TEAEs ([6]; cut-off 6 Jun 2022, N=71): 18.3%; Grade 4 TEAEs ([6]; cut-off 6 Jun 2022, N=71): 2.8%; Grade 4 TRAE of hyperbilirubinemia ([6]; cut-off 6 Jun 2022, N=71): 1; Grade 5 TEAE ([6]; cut-off 6 Jun 2022, N=71): 1.4%; TEAEs of Grade ≥3 ([6]; cut-off 6 Jun 2022, N=71): 22.5%; patients with TRAEs of Grade ≥3 ([6]; cut-off 6 Jun 2022, N=71): 7.0%; patients with at least 1 TEAE ([6]; cut-off 6 Jun 2022, N=71): 87.3%; patients with at least 1 TRAE ([6]; cut-off 6 Jun 2022, N=71): 71.8%; TEAE leading to discontinuation ([6]; four of 71 patients): 5.6%; binding (progesterone receptor): bound; fraction unbound at 1 μM [7]: 0.026; fraction unbound at 1 μM [8]: 0.061; bidirectional permeability (Caco-2 cells): Similarly low bidirectional permeability; Papp A→B at 1.125 pM ([9]; read-out: permeability apical to basolateral): 1.33 ×10⁻⁶ cm/s; Papp B→A at 1.125 pM ([9]; read-out: permeability basolateral to apical): 0.08 ×10⁻⁶ cm/s
